biological target: T1, UDP-N-acetylmuramoylalanine--D-glutamate ligase (Leptospira interrogans serogroup Icterohaemorrhagiae serovar Lai (strain 56601), UniProt Q8F7V4); assay: Inhibition Assay
T1 sequence (Q8F7V4 whole entry): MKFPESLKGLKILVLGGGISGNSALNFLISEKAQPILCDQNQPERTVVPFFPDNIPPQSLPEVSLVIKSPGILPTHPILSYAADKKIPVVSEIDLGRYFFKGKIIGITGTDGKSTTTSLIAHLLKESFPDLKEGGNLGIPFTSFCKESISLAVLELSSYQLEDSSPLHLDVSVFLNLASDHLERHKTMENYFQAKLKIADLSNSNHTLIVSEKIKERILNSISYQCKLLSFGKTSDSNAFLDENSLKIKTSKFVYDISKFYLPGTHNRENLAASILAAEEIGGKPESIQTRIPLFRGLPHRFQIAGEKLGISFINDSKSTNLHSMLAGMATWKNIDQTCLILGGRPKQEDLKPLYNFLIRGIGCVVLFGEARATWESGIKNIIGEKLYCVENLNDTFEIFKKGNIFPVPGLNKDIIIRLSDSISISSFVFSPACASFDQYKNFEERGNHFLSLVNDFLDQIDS
Excerpt: Inhibiton assay using MurgD.

Row | Compound | IC50 [µM]
1 | O=C(O)c1cc(C(=O)O)cc(-c2ccc(/C=C3\SC(=S)N(c4ccc5c(c4)OCO5)C3=O)o2)c1 [Benzene 1,3-dicarvboxylic acid inhibitor] | 270
2 | C[C@@H](NC(=O)C=Cc1ccc2c(c1)OCO2)P(=O)(O)CC(CCC(=O)O)C(=O)O (stereo partly drawn) [Phosphinate inhibitor 1] | 95
3 | C[C@H](NS(=O)(=O)Cc1ccc([N+](=O)[O-])cc1)C(=O)N[C@@H](C)P(=O)(O)CC(CCC(=O)O)C(=O)O (stereo partly drawn) [Phosphinate inhibitor 2] | 78

From BindingDB's records for doi:10.1007/s12154-010-0040-8 (Svims University, 2010)
